{
  "source": "patent US11872196B2",
  "about": "“Use of cannabidiol in treatment of pulmonary hypertension” (DEYI PHARMARMACEUTICAL LTD., priority 2017, dated 2024)",
  "key": {"TNF-α": {"test_system": "TNF-α", "test": "LPS-induced primary alveolar macrophages, TNF-α expression by fluorescence quantitative PCR", "type": "cell-based, mouse", "settings": "0.5, 1, 5 μM CBD pre-treatment 0.5 h, then 100 ng/mL LPS, 5 h; dose-dependent", "source_text": "(§1) Primary alveolar macrophages were isolated according to the method by Yang et al. (Yang, H. M., Ma, J. Y., Castranova, V., and Ma, J. K. (1997). Effects of diesel exhaust particles on the release of interleukin-1 and tumor necrosis factor-alpha from rat alveolar macrophages. Experimental lung research 23, 269-284): two-month-old mice were taken and injected intraperitoneally with pentobarbital to be anesthetized. The mice were fixed at a supine position, and disinfected at the neck, and the neck skin was cut open to strip gland muscles and expose the trachea. A small opening was cut in an upper part of the trachea without cutting off. A small white pipette tip was inserted onto a 1 ml pipette to pipette 1 ml PBS at 4° C. (free of Ca^2+, free of Mg^2+, […]) [50 ml PBS+0.00876 g EDTA] into the lung from the opening, and then pipetted out from the opening after blowing in. Then fresh PBS was taken and pipetted into and out from the opening repeatedly for 3-4 times. The collected alveolar irrigation solution was centrifuged at 200×g for 5 minutes, and the supernatant was discarded. The cells were washed once with a serum-free RPMI-1640 culture medium and centrifuged at 200×g for 5 minutes. The cells were resuspended by adding a serum-containing RPMI-1640 and then inoculated. The cells were subjected to adherence for 2 h, and then washed for three times with PBS. […]"}, "MgI2": {"test_system": "MgI2", "test": "LPS-induced primary alveolar macrophages, MgI2 expression by fluorescence quantitative PCR", "type": "cell-based, mouse", "settings": "0.5, 1, 5 μM CBD pre-treatment 0.5 h, then 100 ng/mL LPS, 5 h", "source_text": "as §1"}, "[1]": {"test_system": "C57BL/6 mice with pulmonary arterial hypertension caused by hypoxia", "test": "Right ventricular hypertrophy (RVH) index RV/(LV+S) in hypoxia PAH mice", "type": "in vivo, mouse", "settings": "7 days, model group 32.62±1.41, normoxia 25.99±1.17, mean±standard error", "experimental": "(§2) Healthy and lively C57BL/6 mice at the age of 4-6 weeks, with glossy hair colors, and body weights of (25.15±2.15) g (Laboratory Animal Center of Academy of Military Medical Sciences, SPF grade). The mice were divided into four groups: • Group 1 (wild-type normoxia, used as a control group): 10 female mice and 10 male mice under normoxia conditions; • Group 2 (wild-type hypoxia, used as a control group): 10 female mice and 10 male mice under hypoxia conditions; • Group 3 (10 mg/kg, used as an experimental group): 10 female mice and 10 male mice were treated with 10 mg/kg by gavage under hypoxia conditions; • Group 4 (50 mg/kg, used as an experimental group): 10 female mice and 10 male mice were treated with 50 mg/kg by gavage under hypoxia conditions.\nThe mice of groups 2-4 were placed in an animal feeding chamber under normal pressure and hypoxia, the oxygen concentration in the chamber was maintained at 9%-11%, and the temperature in the chamber was maintained at 22-26° C. The mice of group 1 inhaled normal atmosphere air, and the other conditions were the same as those for mice of groups 2-4. […]"}, "IL-6": {"test_system": "IL-6", "test": "LPS-induced primary alveolar macrophages, IL-6 expression by fluorescence quantitative PCR", "type": "cell-based, mouse", "settings": "0.5, 1, 5 μM CBD pre-treatment 0.5 h, then 100 ng/mL LPS, 5 h; dose-dependent", "source_text": "as §1"}, "[2]": {"test_system": "C57BL/6 mice with pulmonary arterial hypertension caused by hypoxia", "test": "Pathological changes of pulmonary arterioles (HE and elastic fiber staining, vascular remodeling rate) in hypoxia PAH mice", "type": "in vivo, mouse", "experimental": "as §2\nThe mice of groups 2-4 were placed in an animal feeding chamber under normal pressure and hypoxia, the oxygen concentration in the chamber was maintained at 9%-11%, and the temperature in the chamber was maintained at 22-26° C. The mice of group 1 inhaled normal atmosphere air, and the other conditions were the same as those for mice of groups 2-4.\nIn order to explore whether CBD has a therapeutic effect on pulmonary arterial hypertension or not, the inventor first treated mice for 14 days in a continuous hypoxia environment to establish a model of pulmonary arterial hypertension (the groups 2-4), and then administration was started from day 15 to day 21 through gavage once a day, the mice were treated every day for 7 days (the group 3-4), and detection was performed on day 21.\nSample: paraffin sections of mouse lung tissue.\nObjective: observing the pathology of lung tissues to detect whether there is a vascular wall thickening phenomenon or not."}, "[3]": {"test_system": "C57BL/6 mice with pulmonary arterial hypertension caused by hypoxia", "test": "Right ventricular systolic pressure (RVSP) in mice with pulmonary arterial hypertension caused by hypoxia", "type": "in vivo, mouse", "settings": "day 15 to 21 of continuous hypoxia, detection on day 21, hypoxia model control 25.55±2.29, normoxia 17.54±1.48, mean±standard error", "experimental": "as §2, with “conditions. […]” for “conditions.”\nOn day 21, the mice were anesthetized by intraperitoneal injection of sodium pentobarbital (35 mg/kg), and the right ventricular systolic pressure was measured by using a catheter matched with a physiological instrument with reference to the right-heart catheterization reported by Song et al. (Song, Y., Jones, J. E., Beppu, H., Keaney, J. F., Jr., Loscalzo, J., and Zhang, Y. Y. (2005). Increased susceptibility to pulmonary hypertension in heterozygous BMPR2-mutant mice. Circulation 112, 553-562). […] After the catheter entered the right ventricle, RVSP was determined and recorded."}, "[4]": {"settings": "after CBD treatment (10 and 50 mg/kg by gavage) versus hypoxia model group"}, "[5]": {"settings": "both dose groups (10 and 50 mg/kg)"}},
  "data": [
    {"compound": "C=C(C)[C@@H]1CCC(C)=C[C@H]1c1c(O)cc(CCCCC)cc1O", "note": "[CBD, Cannabidiol]", "values": [
      {"measurement": "expression of LPS-induced TNF-α", "setting": "TNF-α", "result": "significantly inhibit"},
      {"measurement": "expression of MgI2, a gene that inhibited inflammation", "setting": "MgI2", "result": "promote"},
      {"measurement": "right ventricular hypertrophy index (right heart index)", "setting": "[1]; 10 mg/kg by gavage", "result": "30.18±1.01", "unit": "%"},
      {"measurement": "right ventricular hypertrophy index (right heart index)", "setting": "[1]; 50 mg/kg by gavage", "result": "29.90±1.19", "unit": "%"},
      {"measurement": "expression of LPS-induced IL-6", "setting": "IL-6", "result": "significantly inhibit"},
      {"measurement": "pulmonary arteriole remodeling", "setting": "[2]; [4]", "result": "significantly reduced"},
      {"measurement": "vascular remodeling rate", "setting": "[2]; [4]", "result": "significantly reduced"},
      {"measurement": "arterial medial wall thickness ratio", "setting": "[2]; [5]", "result": "reduction"},
      {"measurement": "vascular wall medial cross-sectional area ratio", "setting": "[2]; [5]", "result": "reduction"},
      {"measurement": "mean right ventricular systolic pressure", "setting": "[3]; 10 mg/kg by gavage once a day", "result": "16.90±2.31", "unit": "mmHg"},
      {"measurement": "mean right ventricular systolic pressure", "setting": "[3]; 50 mg/kg by gavage once a day", "result": "17.92±2.37", "unit": "mmHg"}
    ]}
  ]
}
